We go through 80 compounds from the METLIN SMRT retention time set (Domingo-Almenara et al. 2019).

A short description of this series: gradient 5% acetonitrile 3 min, to 50% in 2 min, to 85% in 15 min, held 3 min, 100 µL/min. The note with it: column: Zorbax Extend-C18 2.1 x 50 mm; eluents: water / acetonitrile, 0.1% formic acid. Put shortly:
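Data were gathered over 3 months by HPLC coupled to a quadrupole time-of-flight mass spectrometer, operated in positive and negative ionization mode. Mixtures of ~100 pure standards ran on a Zorbax Extend-C18 column (2.1 × 50 mm, 1.8 μm) at 100 μL/min, with water and acetonitrile each containing 0.1% formic acid and dead and dwell volumes of 40 μL and 900 μL. Retention time was read from adduct peaks picked by computer and checked manually.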
`Cc1nc(-c2ccccc2)cc2nn(CC(=O)Nc3ccc(F)cc3Cl)c(=O)n12` showed an RP-LC retention time of 967 s.

With `CN(C)CC(=O)N1CC(F)(F)C[C@H]1c1nc(C2CC2)no1`, the RP-LC retention time is 584 s.

For the compound `Cc1ccc(-c2noc(-c3ccc(=O)n(Cc4cc(C)ccc4C)c3)n2)cc1`, the RP-LC retention time was determined as 1260 s.

Compound `O=C(Nc1ccc2c(c1)OCCO2)C1(CCO)CCN(c2ncccn2)C1` (stereo not given) showed an RP-LC retention time of 606 s.

As to `COc1ccc(S(=O)(=O)N2CCCC(C(=O)N3CCC(Cc4ccccc4)CC3)C2)cc1Cl` (stereo not given), the RP-LC retention time was 1170 s.

On to `COc1ccccc1-c1noc(C2CCCN2C(=O)Nc2ccc(F)cc2)n1` (stereo not given), for which the RP-LC retention time worked out at 842 s.

For the compound `CCCNC(=O)Cc1csc(-n2nc(C)c(Cl)c2C)n1`, the RP-LC retention time is 904 s.

`O=C1NC2(CCN(C(=O)c3cccc(F)c3)CC2)Nc2c(Cl)cccc21` gave an RP-LC retention time of 756 s.

Take `CN(Cc1cccnc1Oc1ccccc1)C(=O)c1cnccn1`: the RP-LC retention time stood at 691 s.

`CCOc1ccc(CNC(=O)Cn2ccc3ccc(N4CCOCC4)nc32)cc1`: the RP-LC retention time amounted to 894 s.

Take `COc1cccc(-n2c(N3CCCC(C(=O)NCc4ccccc4)C3)nc3ccsc3c2=O)c1` (stereo not given): the RP-LC retention time is 859 s.

As to `Cc1[nH]c(=O)nc(N/N=C/c2ccc(Cl)cc2)c1C(=O)Nc1ccc(Cl)cc1`, the RP-LC retention time worked out at 1020 s.

As for `O=C(NCc1ccccc1)Nc1ccc2nc(-c3ccccc3)cc(N3CCOCC3)c2c1`, the RP-LC retention time is 709 s.

Take `Cc1cc(S(=O)(=O)N2CCC(n3cnnc3-c3ccccc3)CC2)ccc1F`: the RP-LC retention time stood at 840 s.

In turn, `CC(C)NC(=O)N(CC(=O)N1CCc2sccc2C1COc1ccccc1)CC1CC1` (stereo not given) registered an RP-LC retention time of 943 s.

`CCC(=O)N1CCc2c([nH]c3ccccc23)C12C(=O)N(C)c1ccccc12` (stereo not given) showed an RP-LC retention time of 828 s.

Regarding `CC(NC(=O)C1CCN(c2cncnc2N2CCOCC2)CC1)c1ccccn1` (stereo not given), the RP-LC retention time is 547 s.

For `O=C(NCC1CCCO1)C1CCN(S(=O)(=O)c2ccc(-c3noc(C4CC4)n3)cc2)CC1` (stereo not given), the RP-LC retention time came to 789 s.

Regarding `CCOC(=O)c1sc(NC(=O)c2cccs2)nc1C`, the RP-LC retention time stood at 892 s.

`O=C(NCCc1ccccc1)N1CCCC(Cn2c(C3CC3)nc3cccnc32)C1` (stereo not given): the RP-LC retention time was 682 s.

Compound `CC(=O)N1CCc2cc(S(=O)(=O)C(C)CC(=O)N3CCN(c4cccc(Cl)c4)CC3)ccc21` (stereo not given) returned an RP-LC retention time of 891 s.

In turn, `COc1cccc(NC(=O)c2csc(-c3cn(C)c4ncccc34)n2)c1` gave an RP-LC retention time of 978 s.

Regarding `CCC(CC)C(=O)Nc1nc(-c2ccc3c(c2)NC(=O)CO3)c(C)s1`, the RP-LC retention time turned out to be 910 s.

`O=C(Nc1ccccc1Cl)C1=Cc2ccccc2OC1` had an RP-LC retention time of 975 s.

In turn, `CCn1cc(CCN2CCN(C(=O)c3ccc(Br)cc3)CC2)c2cccnc21` returned an RP-LC retention time of 629 s.

`O=C(NCC1(CO)CC1)c1ccc2nsnc2c1` showed an RP-LC retention time of 602 s.

Turning to `CCn1c(=O)n(CC(=O)N2CCOCC2)c(=O)c2cnc(-c3ccc(Cl)cc3)nc21`, the RP-LC retention time turned out to be 934 s.

With `CCOC(=O)c1ccc(Nc2nc(N3CCCC3)nc(N3CCCC3)n2)cc1`, the RP-LC retention time worked out at 772 s.

The compound `CCc1cc(C(=O)Cc2nc3ccccc3n2C)c(O)cc1O` gave an RP-LC retention time of 587 s.

`CC1CCN(C(=O)C2=NN(Cc3ccc(F)cc3)c3ccccc3S2(=O)=O)CC1` displayed an RP-LC retention time of 1000 s.

For the compound `CC(C)(Oc1ccc(Cl)cc1)C(=O)NCCN1CCN(C(=O)c2cccs2)CC1`, the RP-LC retention time was 592 s.

For `CNC(=O)C1CCCN(c2nc3ncn(CC(=O)NC4CCCC4)c(=O)c3s2)C1` (stereo not given), the RP-LC retention time was found to be 605 s.

In the case of `Cc1cc(NC(=O)C(C)Oc2ccc(-c3cnc4ccccc4n3)cc2)no1` (stereo not given), the RP-LC retention time is 890 s.

For `CS(=O)(=O)N1CCC(CNC(=O)CSCc2ccccc2)CC1`, the RP-LC retention time was 691 s.

For the compound `Cn1nc(C(=O)N2CCCC(C(=O)NC3CC3)C2)c2c1CCN(C(=O)CCc1ccccc1)C2` (stereo not given), the RP-LC retention time turned out to be 671 s.

Regarding `CCCNC(=O)N(C1CCOCC1)C1CCN(C(=O)c2nn(C)c3ccccc23)CC1`, the RP-LC retention time was found to be 1150 s.

Take `CCN1CCC(N2CCC3(CC2)NCCc2c3[nH]c3ccc(OC)cc23)CC1`: the RP-LC retention time turned out to be 517 s.

Take `O=C1NC(C(=O)Nc2ccc(F)cc2)Cn2cccc21` (stereo not given): the RP-LC retention time was determined as 666 s.

The compound `O=C(O)c1cn(Cc2ccccc2F)c(=O)c2ccccc12` displayed an RP-LC retention time of 801 s.

The compound `Cc1coc2c(C)c3oc(=O)c(CCC(=O)NCCc4ccc(S(N)(=O)=O)cc4)c(C)c3cc12` yielded an RP-LC retention time of 828 s.

The compound `CCOC(=O)c1[nH]c(C)c(CCC(=O)N2CCCC(C(=O)NCc3cc(OC)ccc3OC)C2)c1C` (stereo not given) returned an RP-LC retention time of 799 s.

As to `CCCn1c(=O)c2c(C(=O)NCc3ccc(Cl)cc3)cc(=O)n(CCC)c2n(C)c1=O`, the RP-LC retention time is 1060 s.

`O=C(NCCc1ccccc1)N1CCc2nc(-c3ccccc3)ncc2C1` returned an RP-LC retention time of 860 s.

In turn, `CCOC(=O)c1noc2ncnc(N3CCN(c4ccc(OC)cc4)CC3)c12` gave an RP-LC retention time of 955 s.

In turn, `Cc1cccc(-c2nnc(-c3nc(NCCc4c(C)noc4C)c4ccccc4n3)o2)c1` had an RP-LC retention time of 956 s.

The compound `COC(=O)c1ncn2c1C(=O)N(CCCc1ccccc1)C(C)(C(=O)NCc1ccccc1)C2` (stereo not given) registered an RP-LC retention time of 761 s.

Consider `O=C(Nc1cccc(Br)c1)N1CCC(n2cnc3cccnc32)CC1`, for which the RP-LC retention time is 660 s.

The compound `CCc1nn2c(CNS(=O)(=O)c3ccc(C)c(C)c3)c(-c3ccccc3)nc2s1` had an RP-LC retention time of 984 s.

`CCn1ccc(C(=O)N2CCCC2c2cccc(C)c2)n1` (stereo not given) had an RP-LC retention time of 890 s.

Compound `Cc1cc(C)cc(-n2c(SCC(=O)Nc3nc(C)cs3)nc3c(c2=O)SCC3)c1` yielded an RP-LC retention time of 825 s.

In turn, `COc1ccccc1NC(=O)c1oc2ccccc2c1NC(=O)Cc1ccc(F)cc1` returned an RP-LC retention time of 1180 s.

For the compound `COCCNc1c(-c2cccc(F)c2)nc2sc(C(=O)NC(C)C)c(C)n12`, the RP-LC retention time was 835 s.

For the compound `O=C(NCc1ccncc1)C1CCCN(c2ncnc3c2oc2ccccc23)C1` (stereo not given), the RP-LC retention time turned out to be 579 s.

In turn, `Cc1nn(CC(=O)NCCN2CCCCCC2)c(=O)c2nc(-c3ccccc3)sc12` displayed an RP-LC retention time of 657 s.

`Cc1ccc(-c2ccc(=O)n(CCCC(=O)N3CCc4ccccc43)n2)cc1` gave an RP-LC retention time of 880 s.

`Cc1cc(NC(=O)c2nc3ccccc3s2)sn1` came in with an RP-LC retention time of 809 s.

Compound `Cc1ccc2c(Nc3ccc4c(c3)OCCO4)c(C(=O)N3CCCCC3C)cnc2n1` (stereo not given) displayed an RP-LC retention time of 623 s.

As to `CSc1cccc(NC(=O)COc2cc(C(F)(F)F)c3c(C)nn(C)c3n2)c1`, the RP-LC retention time came to 756 s.

As to `COc1cccc(CNC(=O)c2nnc(-c3ccc(S(=O)(=O)N4CCCCC4)cc3)o2)c1`, the RP-LC retention time is 960 s.

In turn, `CN1C(=O)CCc2cc(NC(=O)C3CCCCC3)ccc21` yielded an RP-LC retention time of 752 s.

Turning to `CCc1nc2cc(N3CCC(C(=O)N(CC)CC)CC3)cnc2nc1CC`, the RP-LC retention time was determined as 712 s.

In the case of `CN1CCN(CCNC(=O)c2ccc3c(c2)N(S(=O)(=O)c2ccccc2F)CC3)CC1`, the RP-LC retention time came to 617 s.

For `O=C1CC(c2nc(-c3cccc(Cl)c3)no2)CN1c1ccc2c(c1)OCO2` (stereo not given), the RP-LC retention time was 1030 s.

As to `COc1ccc(-c2nnc(-c3cccc(S(=O)(=O)N(C)C)c3)o2)cc1`, the RP-LC retention time was 908 s.

On to `Cc1ccc(CN2CCN(CC(=O)N3CCN(c4ccccn4)CC3)C(=O)C2=O)cc1`, for which the RP-LC retention time came out at 586 s.

`Cc1ccc(C(=O)Nc2nc(-c3ccc4c(c3)NC(=O)CO4)cs2)cc1` showed an RP-LC retention time of 873 s.

Regarding `CN1CCN(c2ncncc2N2CCC(C(=O)N3CCCCC3)CC2)CC1`, the RP-LC retention time stood at 557 s.

Turning to `COc1ccc(-c2nc3ncc4c(=O)n(CCc5c[nH]c6ccc(F)cc56)ccc4n3n2)cc1`, the RP-LC retention time was 935 s.

Consider `CC(C)CCNC(=O)c1nn(-c2ccc(F)cc2)nc1CO`, for which the RP-LC retention time amounted to 984 s.

For the compound `CCOC(=O)c1ccc(NC(=O)C2CCCN(S(C)(=O)=O)C2)cc1` (stereo not given), the RP-LC retention time worked out at 762 s.

With `Cc1oncc1CN1CCN(C(=O)c2c(F)cccc2Cl)CC1`, the RP-LC retention time stood at 575 s.

Regarding `CC1CCN(S(=O)(=O)c2ccc3nc(N4CCN(c5ccccc5F)CC4)ccc3c2)CC1`, the RP-LC retention time came out at 1260 s.

`Cc1ccc(N2CC(c3noc(-c4sccc4C)n3)CC2=O)cc1` (stereo not given) registered an RP-LC retention time of 1040 s.

Regarding `CCc1noc2nc(C)n(CC(=O)NCCC3=CCCCC3)c(=O)c12`, the RP-LC retention time was found to be 908 s.

Compound `CCn1cc(-c2ccc(OC)cc2)cc1C(=O)NCCN1CCN(C)CC1` returned an RP-LC retention time of 623 s.

`Cc1cccc(NC(=O)c2[nH]c(C)c(S(=O)(=O)N3CCCC3)c2C)c1C`: the RP-LC retention time was 858 s.

`O=C(NC1CCN(C(=O)c2cn(-c3ccc(Cl)cc3)nn2)CC1)c1cccs1`: the RP-LC retention time was 628 s.

Turning to `Cc1cccc(NC(=O)N2CCC3(C2)C(=O)Nc2ccccc23)c1` (stereo not given), the RP-LC retention time came out at 727 s.

`CCOC(=O)c1cnn(-c2ccc(Cl)nn2)c1C` returned an RP-LC retention time of 871 s.

With `CCCN1C(=O)c2c(C(=O)NCc3ccccc3)ncn2CC1(C)C(=O)NC1CCCC1` (stereo not given), the RP-LC retention time came out at 756 s.
